In patent publication US20210379214A1, “Phospholipid-Free Small Unilamellar Vesicles (PFSUVS) for Drug Delivery” (The University of British Columbia, priority 2018, published 2021):
In brackets after ≈: the same amount, converted by molar mass.

Columns and labels:
EMT6 cells [1] = test: Cellular uptake in the presence of apolipoprotein; type: cell-based, murine; settings: 4 hours, apolipoprotein 5, 20, 100 μg/ml
Experimental: EMT6 cells were seeded in 12 wells on cover slip over night to be confluent. […] After treatment, the cover slips were fixed with 10% and were then mounted on slide with a DAPI contained fluorescence shield. The slides were imaged under a confocal microscopy. Doxorubicin signal in those images were then quantified by Cellprofiler™.

[2] = test system: EMT6 murine breast cancer cells; test: In vitro cytotoxicity (MTT assay); type: cell-based
Experimental: (§1) EMT6 (murine breast tumor) and the resistant variant, EMT6/AR1 cells overexpressing P-glycoprotein were purchased from the National Cancer Institute (Bethesda, Md.). EMT6 cells were cultured in DMEM medium with 10% FBS, penicillin (100 U/ml) and streptomycin (100 μg/ml) at 37° C. with 5% CO2.
EMT6 cells were seeded on a 96-well plate (1000 cells/well). Wells with medium only were used as blank. […] Two days later, 5 μl of MTT solution (5 mg/ml) was added to each well, followed by 4-h incubation. The medium was removed and 100 μl DMSO was added into each well, followed by incubation at room temperature for 15 min. Absorbance at 540 nm in each well was then measured by a plate reader. The cell viability was calculated as (Abs−Abblank)/(Ab100−Abblank)×100%, where Abs is the Absorbance540 nm for the experimental group, Abblank is the Absorbance540 nm of sample without cells and Ab100 is the Absorbance540 nm of sample without treatment.

EMT6 cells [3] = test: Cellular uptake of DOX by confocal laser scanning microscopy; type: cell-based, murine; settings: for Mean Fluorescence Intensity: 5 μg DOX/ml
Experimental: as §1
Cellular uptake of DOX was imaged by confocal laser scanning microscopy (CLSM). EMT6 cells were seeded on a cover slip placed in a 24-well plate (1×10^5 cell/well) for 24 h prior to the study. […] The medium was removed and the cells were washed with PBS twice before fixation with 10% of formaldehyde at room temperature for 20 min. The cover slip was then washed for another 2 times with PBS and mount on a glass slide with fluorescence shield containing DAPI. The cells were imaged under a Zeiss™ confocal microscope (LSM 700™) and the image was analyzed using the CellProfiler™ (Version 3.0) software.

## COc1cccc2c1C(=O)c1c(O)c3c(c(O)c1C2=O)C[C@@](O)(C(=O)CO)C[C@@H]3O[C@H]1C[C@H](N)[C@H](O)[C@H](C)O1 [DOX, doxorubicin]
EMT6 cells [1]
  effect of increasing concentrations of apolipoproteins on internalization: no influence
[2]
  in vitro potency, fold more effective than PFSUVs-dox: 4 fold
[2]; MTT, curve fitting
  IC50: 0.025 mg/L (≈ 0.046 µM)
EMT6 cells [3]; EMT6 cells, 4 hr
  change of DOX cellular uptake in the presence of serum versus serum free: did not significantly change
EMT6 cells [3]; EMT6 cells, 4 hr, 10% Serum
  Mean Fluorescence Intensity: 0.247 ± 0.021
EMT6 cells [3]; EMT6 cells, 4 hr, Without Serum
  Mean Fluorescence Intensity: 0.258 ± 0.014
EMT6 cells [3]; absence of serum
  increased cellular uptake relative to PFSUVs-DOX and PLD: ~15 fold
